Columns and labels:
Propionibakterium acnes [1] = experiment: Suspension test, antimicrobial efficacy (reduction factor of cell count vs control); format: cell-based, P. acnes (DSM 1897); conditions: after 24h at 37°C, anaerobic medium; cfu(Kontrolle)/cfu(Testsubstanz); A: 0,2 µg/ml TPI 2007; B: 250 µg/ml Decan-1,2-diol; C: 250 µg/ml Decan-1,2-diol + 0,2 µg/ml TPI 2007
Protocol: Die antimikrobielle Wirksamkeit der erfindungsgemäßen dermatologischen und/oder kosmetischen Zubereitung gegen Propionibakterium acnes (P. acnes) wurde zum Vergleich mit verschiedenen Formulierungen untersucht.
Dazu wurde das Bakterium P. acnes (DSM 1897) aus einem nach EN 12353 angelegten Cryoröhrchen auf einer entsprechenden Agarplatte (Cost-Agar) ausgestrichen und bei 37°C 5 Tage unter anaeroben Bedingungen bebrütet.
Eine Impföse der Bakterien wurde zu 10mL anaerobem Medium gegeben und im Impedanzgerät mit dem Programm PR37NT unter anaeroben Bedingungen inkubiert. Anschließend wurde diese Bakteriensuspension auf eine OD (optische Dichte) von 0,3-0,5 eingestellt. Die eingestellte Bakteriensuspension wurde dann 1:10 mit anaerobem Medium verdünnt, um eine Keimzahl von ungefähr 5*10^6 zu gewährleisten. Diese Bakteriensuspension wurde anschließend für den Test eingesetzt.
Der Suspensionstest wurde per Hand durchgeführt. Hierzu wurden 500µL der zu testenden Wirkstofflösungen bzw. im Falle der Kontrollen 500 µl anaerobem Medium in Mikroreaktionsgefäßen vorgelegt. Anschließend wurden 500 µl der Bakteriensuspension hinzugegeben und gemischt. Zum Zeitpunkt t0 wurde eine Probe aus den Kontrollen entnommen. Die Mikroreaktionsgefäße wurden nun im Thermoschüttler bei 37 °C inkubiert. […]

Propionibakterium acnes [2] = conditions: 0,2% Decan-1,2-diol alone; cited from earlier work

CCCCCCCCC(O)CO (centres unmarked) [Probe B, Decan-1,2-diol]
Reduktionsfaktor (Propionibakterium acnes [1]): 1
antibakterielle Wirkung im Suspensionstest (Propionibakterium acnes [2]): so gut wie keine antibakterielle Wirkung

Source: EP3236920B1, “ANTIMICROBIAL PREPARATION COMPRISING BISPYRIDINIUM ALKANES, 1- OR 2-(C1 TO C24 ALKYL) GLYCEROL ETHER AND ALKANE-1,2-DIOLS” (Beiersdorf AG, priority 2014, dated 2016)
